Results published in patent publication US20100305124A1, “Acylated Aminopyridine and Aminopyridazine Insecticides” (BAYER CROPSCIENCE AG, priority 2009, published 2010).

Legend:
[1] = system: common spider mite (Tetranychus urticae); experiment: Tetranychus test (TETRUR), sprayed French bean plants; assay type: in vivo; settings: application rate of 500 ppm; spray on French bean plants
Method: Tetranychus Test (TETRUR) Solvent: 3 parts by weight of dimethylformamide Emulsifier: 1 part by weight of polyoxyethylenealkyl phenyl ether An appropriate preparation of active ingredient is prepared by mixing 1 part by weight of active ingredient with the stated amount of solvent and emulsifier and diluting the concentrate with water to the desired concentration. French bean (Phaseolus vulgaris) plants are infested with a mixed population of the common spider mite (Tetranychus urticae) and sprayed with the preparation of active ingredient at the desired concentration. After the desired time, the effect in % is determined: here, 100% means that all of the spider mites have been killed. Conversely, 0% means that no spider mites have been killed.

[2] = system: green peach aphid (Myzus persicae); experiment: Myzus test (MYZUPE spray treatment), Chinese cabbage leaf discs; assay type: in vivo; settings: foliar, application rate of 500 g/ha, spray on Chinese cabbage discs, read-out: effect in % (aphids killed)
Method: Myzus Test (MYZUPE Spray Treatment)
Solvents: 78 parts by weight of acetone • • 1.5 parts by weight of dimethylformamide Emulsifier: 0.5 part by weight of alkylaryl polyglycol ether
An appropriate preparation of active ingredient is prepared by mixing 1 part by weight of active ingredient with the stated amounts of solvents and emulsifier and diluting the concentrate with emulsifier-containing water to the desired concentration.
Discs of Chinese cabbage (Brassica pekinensis) infested with all stages of the green peach aphid (Myzus persicae) are sprayed with a preparation of active ingredient at the desired concentration.
After the desired time, the effect in % is determined. Here, 100% means that all of the aphids have been killed; 0% means that no aphids have been killed.

SMILES | effect in % (spider mites killed) [1] [%] | pest or weed control at 500 g/ha [2] [%]
CN(C(=O)c1ccc(Oc2ccc(C(C)(C)C)cc2)nc1)c1cccnc1 [I-127] | ≥ 80 | –
CN(C(=O)c1ccc(OC(F)(F)F)cc1)c1cccnc1 [I-266] | – | ≥ 80
COCC(=O)Nc1cc(C(=O)N(C)c2cccnc2)ccc1OC [I-335] | – | ≥ 80
O=C(Nc1cccnc1)c1ccc(F)c(C(F)(F)F)c1 [I-258] | – | ≥ 80
CN(C(=O)c1csc(-c2ncccc2Cl)n1)c1cccnc1 [I-278] | – | ≥ 80
COc1ccc(C(=O)Nc2cccnc2)cc1NC(=O)C1CC1 [I-293] | – | ≥ 80
O=C(Nc1cccnc1)c1cnn(CC(F)(F)F)c1C(F)(F)F [I-282] | – | ≥ 80
COc1ccc(C(=O)N(C)c2cccnc2)cc1NC(=O)C(C)(C)C [I-303] | – | ≥ 80
CC(=O)Nc1cc(C(=O)N(C)c2cccnc2)ccc1C [I-308] | – | ≥ 80
CN(C(=O)c1cn(C)nc1C1CC1)c1ccnnc1 [I-324] | – | ≥ 80
